Assay results: ChEMBL document CHEMBL3885861, “Open TG-GATES”

Species on record: Rattus norvegicus
Assay: Open TG-GATES - Regimen: Single
Format: toxicity, organism-based, Sprague-Dawley
Parameters: regimen Single, gender Male, age 6 weeks
Conditions: in vivo, po, 5 mg/kg, route gavage, dose level Low; for APTT / Bas / Eos / Fbg / Hb / Ht / Lym / MCH / MCHC / MCV / Mono / Neu / PT / Plat / RBC / Ret / WBC: tissue Blood; for LIVER: tissue Liver; for A/G / ALP / ALT / AST / BUN / CRE / Ca / Cl / DBIL / GLC / IP / K / LDH / Na / PL / RALB / TBIL / TC / TG / TP / gamma-GTP: tissue Plasma

`C=C(C)[C@H]1Cc2c(ccc3c2O[C@@H]2COc4cc(OC)c(OC)cc4[C@@H]2C3=O)O1` [ROTENONE] showed a TERMINAL_BW (3 h) of 199.1 g, an APTT (3 h) of 15.7 s and a Bas (3 h) of 0%. The Eos (3 h) was 1%, the Fbg (3 h) was 223 mg/dL and the Hb (3 h) was 12.6 g/dL. It also gave a Ht (3 h) of 38.3%, a Lym (3 h) of 77.2% and an MCH (3 h) of 21.2 pg. The MCHC (3 h) was 33%, the MCV (3 h) was 64.3 fL and the Mono (3 h) was 7.2%. It also gave a Neu (3 h) of 14.6%, a PT (3 h) of 12.3 s and a Plat (3 h) of 119.4 x10_4/uL. The RBC (3 h) was 595.4 x10_4/ul, the Ret (3 h) was 8.6% and the WBC (3 h) was 104.4 x10_2/uL. The LIVER (3 h) was 9.3 g, the A/G (3 h) was 2.1 and the ALP (3 h) was 1388.6 IU/L. For the same molecule, the ALT (3 h) was 39 IU/L, the AST (3 h) was 64.8 IU/L and the BUN (3 h) was 13.8 mg/dL. For the same molecule, the CRE (3 h) was 0.4 mg/dL, the Ca (3 h) was 11.5 mg/dL and the Cl (3 h) was 103.8 meq/L. For the same molecule, the DBIL (3 h) was 0.012 mg/dL, the GLC (3 h) was 189.2 mg/dL and the IP (3 h) was 8.4 mg/dL. It also gave a K (3 h) of 4.3 meq/L, an LDH (3 h) of 112.6 IU/L and a Na (3 h) of 140.6 meq/L. For the same molecule, the PL (3 h) was 142.2 mg/dL, the RALB (3 h) was 3.7 g/dL and the TBIL (3 h) was 0.04 mg/dL. The TC (3 h) was 89.6 mg/dL, the TG (3 h) was 74.8 mg/dL and the TP (3 h) was 5.4 g/dL. The gamma-GTP (3 h) was 1 IU/L, the TERMINAL_BW (6 h) was 191.9 g and the APTT (6 h) was 17.5 s. It also gave a Bas (6 h) of 0%, an Eos (6 h) of 1% and a Fbg (6 h) of 227.6 mg/dL. The Hb (6 h) was 12.9 g/dL, the Ht (6 h) was 39.6% and the Lym (6 h) was 77.4%. The MCH (6 h) was 21 pg, the MCHC (6 h) was 32.8% and the MCV (6 h) was 64.1 fL. It also gave a Mono (6 h) of 4.2%, a Neu (6 h) of 17.8% and a PT (6 h) of 12.6 s. The Plat (6 h) was 127.8 x10_4/uL, the RBC (6 h) was 618.2 x10_4/ul and the Ret (6 h) was 8.4%. It also gave a WBC (6 h) of 86.8 x10_2/uL, an LIVER (6 h) of 8.4 g and an A/G (6 h) of 2.3. The ALP (6 h) was 1155.6 IU/L, the ALT (6 h) was 36.8 IU/L and the AST (6 h) was 67.6 IU/L. For the same molecule, the BUN (6 h) was 10.6 mg/dL, the CRE (6 h) was 0.4 mg/dL and the Ca (6 h) was 11 mg/dL. For the same molecule, the Cl (6 h) was 104.6 meq/L, the DBIL (6 h) was 0.01 mg/dL and the GLC (6 h) was 182.8 mg/dL. It also gave an IP (6 h) of 8.9 mg/dL, a K (6 h) of 4.3 meq/L and an LDH (6 h) of 86.6 IU/L. For the same molecule, the Na (6 h) was 140 meq/L, the PL (6 h) was 133.4 mg/dL and the RALB (6 h) was 3.7 g/dL. The TBIL (6 h) was 0.046 mg/dL, the TC (6 h) was 82.2 mg/dL and the TG (6 h) was 48.6 mg/dL. It also gave a TP (6 h) of 5.4 g/dL, a gamma-GTP (6 h) of 1 IU/L and a TERMINAL_BW (9 h) of 190.6 g. It also gave an APTT (9 h) of 16.3 s, a Bas (9 h) of 0% and an Eos (9 h) of 1%. It also gave a Fbg (9 h) of 218.6 mg/dL, a Hb (9 h) of 12.9 g/dL and a Ht (9 h) of 39.5%. For the same molecule, the Lym (9 h) was 66.8%, the MCH (9 h) was 21.2 pg and the MCHC (9 h) was 32.6%. For the same molecule, the MCV (9 h) was 65.1 fL, the Mono (9 h) was 10.6% and the Neu (9 h) was 22.2%. The PT (9 h) was 12.3 s, the Plat (9 h) was 123.8 x10_4/uL and the RBC (9 h) was 606.2 x10_4/ul. It also gave a Ret (9 h) of 8.4%, a WBC (9 h) of 86.2 x10_2/uL and an LIVER (9 h) of 8.1 g. It also gave an A/G (9 h) of 2.4, an ALP (9 h) of 1273.6 IU/L and an ALT (9 h) of 29.2 IU/L. It also gave an AST (9 h) of 63 IU/L, a BUN (9 h) of 10.2 mg/dL and a CRE (9 h) of 0.3 mg/dL. The Ca (9 h) was 11.1 mg/dL, the Cl (9 h) was 104.6 meq/L and the DBIL (9 h) was 0.008 mg/dL. For the same molecule, the GLC (9 h) was 183.4 mg/dL, the IP (9 h) was 10.2 mg/dL and the K (9 h) was 4.2 meq/L. For the same molecule, the LDH (9 h) was 102.8 IU/L, the Na (9 h) was 139.4 meq/L and the PL (9 h) was 129.6 mg/dL. It also gave an RALB (9 h) of 3.8 g/dL, a TBIL (9 h) of 0.044 mg/dL and a TC (9 h) of 78 mg/dL. For the same molecule, the TG (9 h) was 42.4 mg/dL, the TP (9 h) was 5.4 g/dL and the gamma-GTP (9 h) was 1 IU/L. The TERMINAL_BW (24 h) was 213.3 g, the APTT (24 h) was 15.6 s and the Bas (24 h) was 0%. It also gave an Eos (24 h) of 1%, a Fbg (24 h) of 208.6 mg/dL and a Hb (24 h) of 12.8 g/dL. It also gave a Ht (24 h) of 39%, a Lym (24 h) of 69% and an MCH (24 h) of 21.2 pg. It also gave an MCHC (24 h) of 32.8%, an MCV (24 h) of 64.7 fL and a Mono (24 h) of 10%. It also gave a Neu (24 h) of 19.8%, a PT (24 h) of 12 s and a Plat (24 h) of 123.2 x10_4/uL. For the same molecule, the RBC (24 h) was 602.8 x10_4/ul, the Ret (24 h) was 8.5% and the WBC (24 h) was 98.2 x10_2/uL. It also gave an LIVER (24 h) of 10.5 g, an A/G (24 h) of 2.4 and an ALP (24 h) of 1417.6 IU/L. The ALT (24 h) was 40.4 IU/L, the AST (24 h) was 71 IU/L and the BUN (24 h) was 15.6 mg/dL. The CRE (24 h) was 0.4 mg/dL, the Ca (24 h) was 11.5 mg/dL and the Cl (24 h) was 103.2 meq/L. It also gave a DBIL (24 h) of 0.014 mg/dL, a GLC (24 h) of 187.2 mg/dL and an IP (24 h) of 7.7 mg/dL. It also gave a K (24 h) of 4.6 meq/L, an LDH (24 h) of 106.6 IU/L and a Na (24 h) of 139.4 meq/L. It also gave a PL (24 h) of 158.8 mg/dL, an RALB (24 h) of 3.9 g/dL and a TBIL (24 h) of 0.034 mg/dL. The TC (24 h) was 86.2 mg/dL, the TG (24 h) was 146.8 mg/dL and the TP (24 h) was 5.6 g/dL. It also gave a gamma-GTP (24 h) of 0.6 IU/L.
